Values after ≈ are worked out from the molar mass of the structure shown. Active and inactive are the calls of the source. The rule behind the calls is not given here.
Legend:
Spodoptera frugiperda [1] = test: Insecticidal activity in second instar Spodoptera frugiperda (fall armyworm) in compound treated maize leaf assessed as mortality measured after 48 hr by concentration-mortality bioassay; format: functional
Spodoptera frugiperda [2] = test: Insecticidal activity in second instar Spodoptera frugiperda (fall armyworm) in compound treated maize leaf assessed as mortality measured by Time-mortality bioassay; format: functional
Spodoptera frugiperda [3] = test: Relative toxicity in second instar Spodoptera frugiperda (fall armyworm) in compound treated maize leaf assessed as mortality measured after 48 hr by concentration-mortality bioassay; format: functional
Spodoptera frugiperda [4] = test: Relative toxicity in second instar Spodoptera frugiperda (fall armyworm) in compound treated maize leaf assessed as mortality measured by Time-mortality bioassay; format: functional
Doru [5] = test: Relative toxicity in adult Doru luteipes (earwigs) in compound treated maize leaf assessed as mortality measured after 48 hr by concentration-mortality bioassay; format: functional
[6] = Selectivity ratio of LC50 for adult earwig species Doru luteipes to LC50 for second instar fall armyworm Spodoptera frugiperda by concentration-mortality bioassay; format: functional
Doru [7] = test: Insecticidal activity against adult Doru luteipes (earwigs) in compound treated maize leaf assessed as insect avoidance by behavioral bioassay; format: functional, organism-based
Doru [8] = test: Insecticidal activity against adult Doru luteipes (earwigs) in compound treated maize leaf assessed as mortality measured after 48 hr by concentration-mortality bioassay; format: functional
Doru [9] = test: Insecticidal activity against adult Doru luteipes (earwigs) in compound treated maize leaf assessed as mortality measured by time-mortality bioassay; format: functional
Doru [10] = test: Relative toxicity in adult Doru luteipes (earwigs) in compound treated maize leaf assessed as mortality measured by time-mortality bioassay; format: functional
Doru [11] = test: Insecticidal activity against adult Doru luteipes (earwigs) in compound treated maize leaf assessed as reduction in walking velocity in fully-treated arenas measured during 10 min compound exposure by behavioral locomotory bioassay; format: functional, organism-based
Doru [12] = test: Insecticidal activity against adult Doru luteipes earwig ) in compound treated maize leaf assessed as higher resting time in half-treated arenas measured during 10 min compound exposure by behavioral locomotory bioassay; format: functional, organism-based
Doru [13] = test: Insecticidal activity against adult Doru luteipes earwigs) in compound treated maize leaf assessed as higher in number of stops in half-treated arenas measured during 10 min compound exposure by behavioral locomotory bioassay; format: functional, organism-based
Doru [14] = test: Insecticidal activity against adult Doru luteipes (earwigs) in compound treated maize leaf assessed as reduction in distance walked in fully-treated arenas measured during 10 min compound exposure by behavioral locomotory bioassay; format: functional, organism-based

For `CNC(=O)c1cc(Cl)cc(C)c1NC(=O)c1cc(Br)nn1-c1ncccc1Cl` [CHLORANTRANILIPROLE], the LC50 (Spodoptera frugiperda [1]) was 0.77 µg/mL (≈ 1.59 µM), the LT50 (Spodoptera frugiperda [2]) was 84.61 min and the Ratio (Spodoptera frugiperda [3]) was 5.46. It also gave a Ratio (Spodoptera frugiperda [4]) of 4.97, a Ratio (Doru [5]) of 1 and a RatioLC50 [6] of 980000.

Work on `CCOP(=S)(OCC)Oc1nc(Cl)c(Cl)cc1Cl` [CHLORPYRIFOS] yielded an LC50 (Spodoptera frugiperda [1]) of 1.18 µg/mL (≈ 3.37 µM), an LT50 (Spodoptera frugiperda [2]) of 21.52 min and a Ratio (Spodoptera frugiperda [3]) of 3.57. For the same compound, the inhibition (Doru [7]) was “Active”, the Ratio (Spodoptera frugiperda [4]) was 1.26 and the LC50 (Doru [8]) was 1.4 µg/mL (≈ 3.99 µM). The Ratio (Doru [5]) was 550000, the LT50 (Doru [9]) was 1.73 h and the RatioLC50 [6] was 1.2. It also gave a Ratio (Doru [10]) of 1.

In the case of `CC1(C)[C@H](/C=C(\Cl)C(F)(F)F)[C@@H]1C(=O)O[C@@H](C#N)c1cccc(Oc2ccccc2)c1` (relative stereo) [REL-LAMBDA CYHALOTHRIN], the LC50 (Spodoptera frugiperda [1]) is reported as 0.7 µg/mL (≈ 1.56 µM), the LT50 (Spodoptera frugiperda [2]) is reported as 25.03 min and the Ratio (Spodoptera frugiperda [3]) is reported as 6. For the same compound, the Ratio (Spodoptera frugiperda [4]) was 1.47, the LC50 (Doru [8]) was 16.6 µg/mL (≈ 36.9 µM) and the Ratio (Doru [5]) was 45000. The LT50 (Doru [9]) was 2.12 h, the RatioLC50 [6] was 23.7 and the Ratio (Doru [10]) was 1.23.

Compound `CC1(C)[C@H](C(=O)O[C@H](C#N)c2cccc(Oc3ccccc3)c2)[C@@H]1C=C(Br)Br` [DELTAMETHRIN] has an LC50 (Spodoptera frugiperda [1]) of 0.18 µg/mL (≈ 0.356 µM), an LT50 (Spodoptera frugiperda [2]) of 44.84 min and a Ratio (Spodoptera frugiperda [3]) of 23.2. The Ratio (Spodoptera frugiperda [4]) was 2.63, the LC50 (Doru [8]) was 22.6 µg/mL (≈ 44.7 µM) and the Ratio (Doru [5]) was 33000. It also gave a RatioLC50 [6] of 152.

With `CCOc1ccc(C(C)(C)COCc2cccc(Oc3ccccc3)c2)cc1` [ETOFENPROX] the LC50 (Spodoptera frugiperda [1]) was 3.37 µg/mL (≈ 8.95 µM), the LT50 (Spodoptera frugiperda [2]) was 17.03 min and the Ratio (Spodoptera frugiperda [3]) was 1.25. For the same compound, the inhibition (Doru [7]) was “Active”, the Ratio (Spodoptera frugiperda [4]) was 1 and the LC50 (Doru [8]) was 668 µg/mL (≈ 1770 µM). The Ratio (Doru [5]) was 1133.5 and the RatioLC50 [6] was 198.

With `CC[C@H]1CCC[C@H](O[C@H]2CC[C@H](N(C)C)[C@@H](C)O2)[C@@H](C)C(=O)C2=C[C@@H]3[C@@H](C=C(C)[C@@H]4C[C@@H](O[C@@H]5O[C@@H](C)[C@H](OC)[C@@H](OC)[C@H]5OC)C[C@@H]34)[C@@H]2CC(=O)O1.CC[C@H]1CCC[C@H](O[C@H]2CC[C@H](N(C)C)[C@@H](C)O2)[C@@H](C)C(=O)C2=C[C@@H]3[C@@H](C=C[C@@H]4C[C@@H](O[C@@H]5O[C@@H](C)[C@H](OC)[C@@H](OC)[C@H]5OC)C[C@@H]34)[C@@H]2CC(=O)O1` the LC50 (Spodoptera frugiperda [1]) was 0.04 µg/mL, the inhibition (Doru [11]) was “Active” and the LT50 (Spodoptera frugiperda [2]) was 47.17 min. For the same compound, the inhibition (Doru [12]) was “Active”, the Ratio (Spodoptera frugiperda [3]) was 99.47 and the Ratio (Spodoptera frugiperda [4]) was 2.77. The inhibition (Doru [13]) was “Active”, the LC50 (Doru [8]) was 215 µg/mL and the Ratio (Doru [5]) was 3528. For the same compound, the LT50 (Doru [9]) was 11.43 h, the RatioLC50 [6] was 3530 and the inhibition (Doru [14]) was “Active”. For the same compound, the Ratio (Doru [10]) was 6.61.

In the case of `CCOCn1c(-c2ccc(Cl)cc2)c(C#N)c(Br)c1C(F)(F)F` [CHLORFENAPYR], the LC50 (Spodoptera frugiperda [1]) is reported as 2.37 µg/mL (≈ 5.81 µM), the LT50 (Spodoptera frugiperda [2]) is reported as 116.34 min and the Ratio (Spodoptera frugiperda [3]) is reported as 1.78. For the same compound, the inhibition (Doru [7]) was “Active”, the Ratio (Spodoptera frugiperda [4]) was 6.83 and the LC50 (Doru [8]) was 53.3 µg/mL (≈ 131 µM). It also gave a Ratio (Doru [5]) of 14000, an LT50 (Doru [9]) of 21.58 h and a RatioLC50 [6] of 22.5. It also gave a Ratio (Doru [10]) of 12.48.

In the case of `CNC(=O)ON=C(C)SC` [METHOMYL], the LC50 (Spodoptera frugiperda [1]) is reported as 4.21 µg/mL (≈ 26 µM), the LT50 (Spodoptera frugiperda [2]) is reported as 29.18 min and the Ratio (Spodoptera frugiperda [3]) is reported as 1. It also gave a Ratio (Spodoptera frugiperda [4]) of 1.71, an LC50 (Doru [8]) of 2180 µg/mL (≈ 13400 µM) and a Ratio (Doru [5]) of 348. For the same compound, the RatioLC50 [6] was 517.

Reference: ChEMBL document CHEMBL3044580, “Insecticide selectivity and behavioral response of the earwig Doru luteipes” (2011)
